Data as given in ChEMBL document CHEMBL1201861, “Genomics of Drug Sensitity in Cancer screening data, Wellcome Trust Sanger Institute”.
Counter-ions that a name gives are not always drawn.

Experiments:
T84 = assay: cells; type: functional, cell-based, Homo sapiens; details: Homo sapiens, T84;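 also: growth inhibition measured with a cell viability readout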
Description: SANGER: Inhibition of human T84 cell growth in a cell viability assay.

A-431 = assay: cells; type: functional, cell-based, Homo sapiens; details: Homo sapiens, A-431;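 also: growth inhibition of A-431 cells, determined with a cell viability read-out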
Description: SANGER: Inhibition of human A431 cell growth in a cell viability assay.

LoVo = assay: cells; type: functional, cell-based, Homo sapiens; details: Homo sapiens, LoVo;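 also: growth inhibition of human LoVo cells, read out with a cell viability assay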
Description: SANGER: Inhibition of human LoVo cell growth in a cell viability assay.

T47D = assay: cells; type: functional, cell-based, Homo sapiens; details: Homo sapiens, T47D;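 also: growth inhibition of human T47D cells, measured with a cell viability assay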
Description: SANGER: Inhibition of human T47D cell growth in a cell viability assay.

ABC-1 = assay: cells; type: functional, cell-based, Homo sapiens; details: Homo sapiens, ABC-1;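 also: growth inhibition of human ABC-1 cells, read out by a cell viability assay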
Description: SANGER: Inhibition of human ABC-1 cell growth in a cell viability assay.

Ca-Ski = assay: cells; type: functional, cell-based, Homo sapiens; details: Homo sapiens, Ca-Ski;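 also: cell viability assay measuring inhibition of Ca-Ski cell growth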
Description: SANGER: Inhibition of human Ca-Ski cell growth in a cell viability assay.

HCC1954 = assay: cells; type: functional, cell-based, Homo sapiens; details: Homo sapiens, HCC1954;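 also: growth inhibition of human HCC1954 cells, read out with a cell viability assay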
Description: SANGER: Inhibition of human HCC1954 cell growth in a cell viability assay.

KYSE-70 cell line = assay: cells; type: functional, cell-based, Homo sapiens; details: Homo sapiens, KYSE-70;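 also: cell viability assay read-out, with IC50 expressing suppression of KYSE-70 cell growth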
Description: SANGER: Inhibition of human KYSE-70 cell growth in a cell viability assay.

C3A = assay: cells; type: functional, cell-based, Homo sapiens; details: Homo sapiens, C3A;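 also: growth inhibition of C3A human cells, quantified with a cell viability readout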
Description: SANGER: Inhibition of human C3A cell growth in a cell viability assay.

KYSE-520 cell line = assay: cells; type: functional, cell-based, Homo sapiens; details: Homo sapiens, KYSE-520;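 also: growth inhibition of human KYSE-520 cells, read out with a viability assay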
Description: SANGER: Inhibition of human KYSE-520 cell growth in a cell viability assay.

NCI-H1417 = assay: cells; type: functional, cell-based, Homo sapiens; details: Homo sapiens, NCI-H1417;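 also: human NCI-H1417 cells, growth inhibition determined with a cell viability readout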
Description: SANGER: Inhibition of human NCI-H1417 cell growth in a cell viability assay.

J82 = assay: cells; type: functional, cell-based, Homo sapiens; details: Homo sapiens, J82;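 also: growth inhibition of J82 cells, read out with a cell viability assay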
Description: SANGER: Inhibition of human J82 cell growth in a cell viability assay.

NCI-H719 = assay: cells; type: functional, cell-based, Homo sapiens; details: Homo sapiens, NCI-H719;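 also: growth inhibition of the cultured cell line, read out with a viability assay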
Description: SANGER: Inhibition of human NCI-H719 cell growth in a cell viability assay.

HT1197 = assay: cells; type: functional, cell-based, Homo sapiens, HT-1197; details: Homo sapiens, HT1197
Description: SANGER: Inhibition of human HT-1197 cell growth in a cell viability assay.

KP-4 = assay: cells; type: functional, cell-based, Homo sapiens; details: Homo sapiens, KP-4;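 also: human KP-4 cells, with growth inhibition read out through a cell viability assay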
Description: SANGER: Inhibition of human KP-4 cell growth in a cell viability assay.

ACHN = assay: cells; type: functional, cell-based, Homo sapiens; details: Homo sapiens, ACHN;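 also: cell viability read-out used to gauge how strongly growth of human ACHN cells is suppressed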
Description: SANGER: Inhibition of human ACHN cell growth in a cell viability assay.

HLE = assay: cells; type: functional, cell-based, Homo sapiens; details: Homo sapiens, HLE;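 also: growth inhibition of human HLE cells, read out by a cell viability assay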
Description: SANGER: Inhibition of human HLE cell growth in a cell viability assay.

MeWo = assay: cells; type: functional, cell-based, Homo sapiens; details: Homo sapiens, MeWo;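 also: growth inhibition of MeWo cells, determined by a cell viability readout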
Description: SANGER: Inhibition of human Mewo cell growth in a cell viability assay.

ST486 = assay: SANGER: Inhibition of human ST486 cell growth in a cell viability assay.; type: functional, cell-based; details: Homo sapiens, ST486
SK-MEL-30 = assay: cells; type: functional, cell-based, Homo sapiens; details: Homo sapiens, SK-MEL-30;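 also: growth inhibition of SK-MEL-30 cells, determined with a cell viability assay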
Description: SANGER: Inhibition of human SK-MEL-30 cell growth in a cell viability assay.

PC-14 = assay: cells; type: functional, cell-based, Homo sapiens; details: Homo sapiens, PC-14;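 also: cell viability assay measuring inhibition of PC-14 cell growth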
Description: SANGER: Inhibition of human PC-14 cell growth in a cell viability assay.

JEG-3 = assay: cells; type: functional, cell-based, Homo sapiens; details: Homo sapiens, JEG-3;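 also: growth inhibition of human JEG-3 cells, read out with a cell viability assay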
Description: SANGER: Inhibition of human JEG-3 cell growth in a cell viability assay.

RPMI-2650 = assay: cells; type: functional, cell-based, Homo sapiens; details: Homo sapiens, RPMI-2650
Description: SANGER: Inhibition of human RPMI-2650 cell growth in a cell viability assay.

SCC-3 = assay: cells; type: functional, cell-based, Homo sapiens; details: Homo sapiens, SCC-3;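 also: cell viability assay measuring inhibition of SCC-3 cell growth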
Description: SANGER: Inhibition of human SCC-3 cell growth in a cell viability assay.

HT-29 = assay: cells; type: functional, cell-based, Homo sapiens; details: Homo sapiens, HT-29;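 also: growth inhibition of human HT-29 cells, read out by a cell viability assay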
Description: SANGER: Inhibition of human HT-29 cell growth in a cell viability assay.

ASPC1 = assay: cells; type: functional, cell-based, Homo sapiens; details: Homo sapiens, ASPC1;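 also: growth inhibition of AsPC-1 cells, read out with a cell viability assay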
Description: SANGER: Inhibition of human AsPC-1 cell growth in a cell viability assay.

NCI-H2141 = assay: cells; type: functional, cell-based, Homo sapiens; details: Homo sapiens, NCI-H2141;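 also: growth inhibition of human NCI-H2141 cells, read out with a cell viability assay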
Description: SANGER: Inhibition of human NCI-H2141 cell growth in a cell viability assay.

BHT-101 = assay: cells; type: functional, cell-based, Homo sapiens; details: Homo sapiens, BHT-101
Description: SANGER: Inhibition of human BHT-101 cell growth in a cell viability assay.

RD = assay: cells; type: functional, cell-based, Homo sapiens; details: Homo sapiens, RD
Description: SANGER: Inhibition of human RD cell growth in a cell viability assay.

BC1 cell line = assay: SANGER: Inhibition of human BC-1 cell growth in a cell viability assay.; type: functional, cell-based; details: Homo sapiens, BC1
CHP-212 = assay: cells; type: functional, cell-based, Homo sapiens; details: Homo sapiens, CHP-212
Description: SANGER: Inhibition of human CHP-212 cell growth in a cell viability assay.

NCI-H1693 = assay: cells; type: functional, cell-based, Homo sapiens; details: Homo sapiens, NCI-H1693;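 also: growth inhibition of the human cell line, read out with a cell viability assay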
Description: SANGER: Inhibition of human NCI-H1693 cell growth in a cell viability assay.

Ca9-22 = assay: cells; type: functional, cell-based, Homo sapiens; details: Homo sapiens, Ca9-22;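 also: growth inhibition of Ca9-22 cells, read out with a cell viability assay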
Description: SANGER: Inhibition of human Ca9-22 cell growth in a cell viability assay.

NCI-H2228 = assay: cells; type: functional, cell-based, Homo sapiens; details: Homo sapiens, NCI-H2228;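 also: growth inhibition of human NCI-H2228 cells, read out by a cell viability assay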
Description: SANGER: Inhibition of human NCI-H2228 cell growth in a cell viability assay.

HGC-27 = assay: cells; type: functional, cell-based, Homo sapiens; details: Homo sapiens, HGC-27;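 also: growth inhibition of human HGC-27 cells, read out in a cell viability assay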
Description: SANGER: Inhibition of human HGC-27 cell growth in a cell viability assay.

A204 = assay: cells; type: functional, cell-based, Homo sapiens; details: Homo sapiens, A204;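 also: growth inhibition of human A204 cells, read out with a cell viability assay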
Description: SANGER: Inhibition of human A204 cell growth in a cell viability assay.

NCI-H1651 = assay: cells; type: functional, cell-based, Homo sapiens; details: Homo sapiens, NCI-H1651;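 also: Read-out is a cell viability assay, with IC50 expressing inhibition of NCI-H1651 cell growth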
Description: SANGER: Inhibition of human NCI-H1651 cell growth in a cell viability assay.

HCC38 = assay: cells; type: functional, cell-based, Homo sapiens; details: Homo sapiens, HCC38;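 also: cell viability assay on the human HCC38 cell line, with IC50 marking the concentration that inhibits cell growth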
Description: SANGER: Inhibition of human HCC38 cell growth in a cell viability assay.

IM-9 = assay: SANGER: Inhibition of human IM-9 cell growth in a cell viability assay.; type: functional, cell-based; details: Homo sapiens, IM-9
Daudi = assay: cells; type: functional, cell-based, Homo sapiens; details: Homo sapiens, Daudi;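 also: growth inhibition of Daudi cells, read out by a viability assay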
Description: SANGER: Inhibition of human Daudi cell growth in a cell viability assay.

PF-382 = assay: cells; type: functional, cell-based, Homo sapiens; details: Homo sapiens, PF-382
Description: SANGER: Inhibition of human PF-382 cell growth in a cell viability assay.

SK-OV-3 = assay: cells; type: functional, cell-based, Homo sapiens; details: Homo sapiens, SK-OV-3;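 also: growth inhibition of SK-OV-3 human cells, read out with a cell viability assay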
Description: SANGER: Inhibition of human SK-OV-3 cell growth in a cell viability assay.

SW48 = assay: cells; type: functional, cell-based, Homo sapiens; details: Homo sapiens, SW48;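 also: growth inhibition of SW48 cells, read out with a cell viability assay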
Description: SANGER: Inhibition of human SW48 cell growth in a cell viability assay.

786-0 = assay: cells; type: functional, cell-based, Homo sapiens; details: Homo sapiens
Description: SANGER: Inhibition of human 786-0 cell growth in a cell viability assay.

TUR = assay: cells; type: functional, cell-based, Homo sapiens; details: Homo sapiens, TUR;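 also: growth inhibition of human TUR cells, read out with a cell viability assay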
Description: SANGER: Inhibition of human TUR cell growth in a cell viability assay.

ChaGo-K-1 = assay: cells; type: functional, cell-based, Homo sapiens; details: Homo sapiens, ChaGo-K-1;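 also: growth inhibition of ChaGo-K-1 cells, read out with a cell viability assay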
Description: SANGER: Inhibition of human ChaGo-K-1 cell growth in a cell viability assay.

YT = assay: cells; type: functional, cell-based, Homo sapiens; details: Homo sapiens, YT
Description: SANGER: Inhibition of human YT cell growth in a cell viability assay.

COC1=CC(c2cc3ccccc3[nH]2)=N/C1=C\c1[nH]c(C)cc1C [OBATOCLAX MESYLATE]
IC50 (T84): 212 nM
IC50 (A-431): 88 nM
IC50 (LoVo): 87.2 nM
IC50 (T47D): 1240 nM
IC50 (ABC-1): 505 nM
IC50 (Ca-Ski): 405 nM
IC50 (HCC1954): 5860 nM
IC50 (KYSE-70 cell line): 69.5 nM
IC50 (C3A): 374 nM
IC50 (KYSE-520 cell line): 483 nM
IC50 (NCI-H1417): 265 nM
IC50 (J82): 109 nM
IC50 (NCI-H719): 4150 nM
IC50 (HT1197): 395 nM
IC50 (KP-4): 696 nM
IC50 (ACHN): 132 nM
IC50 (HLE): 169 nM
IC50 (MeWo): 4960 nM
IC50 (ST486): < 62.5 nM
IC50 (SK-MEL-30): < 62.5 nM
IC50 (PC-14): 52.5 nM
IC50 (JEG-3): 1500 nM
IC50 (RPMI-2650): 23 nM
IC50 (SCC-3): 446 nM
IC50 (HT-29): 44.9 nM
IC50 (ASPC1): 7490 nM
IC50 (NCI-H2141): 1190 nM
IC50 (BHT-101): < 62.5 nM
IC50 (RD): 140 nM
IC50 (BC1 cell line): 60.2 nM
IC50 (CHP-212): 81 nM
IC50 (NCI-H1693): 2000 nM
IC50 (Ca9-22): 111 nM
IC50 (NCI-H2228): 893 nM
IC50 (HGC-27): < 62.5 nM
IC50 (A204): 1600 nM
IC50 (NCI-H1651): 497 nM
IC50 (HCC38): 2380 nM
IC50 (IM-9): 330 nM
IC50 (Daudi): 70.8 nM
IC50 (PF-382): 49.4 nM
IC50 (SK-OV-3): 524 nM
IC50 (SW48): 773 nM
IC50 (786-0): < 62.5 nM
IC50 (TUR): 1160 nM
IC50 (ChaGo-K-1): 612 nM
IC50 (YT): 73.4 nM

Cc1cc([N+](=O)[O-])ccc1NS(=O)(=O)c1cc(Cl)ccc1Cl
IC50 (T84): 4690 nM
IC50 (A-431): 2090 nM
IC50 (LoVo): 2000 nM
IC50 (T47D): 26900 nM
IC50 (ABC-1): 3410 nM
IC50 (Ca-Ski): 12100 nM
IC50 (HCC1954): 3620 nM
IC50 (KYSE-70 cell line): 812 nM
IC50 (C3A): 2240 nM
IC50 (KYSE-520 cell line): 27600 nM
IC50 (NCI-H1417): 23200 nM
IC50 (J82): 2620 nM
IC50 (NCI-H719): > 32000 nM
IC50 (HT1197): 11200 nM
IC50 (KP-4): 1660 nM
IC50 (ACHN): 4600 nM
IC50 (HLE): 1990 nM
IC50 (MeWo): 28600 nM
IC50 (ST486): 4830 nM
IC50 (SK-MEL-30): 5760 nM
IC50 (PC-14): 20000 nM
IC50 (JEG-3): 4900 nM
IC50 (RPMI-2650): 1980 nM
IC50 (SCC-3): > 32000 nM
IC50 (HT-29): 5530 nM
IC50 (ASPC1): 22300 nM
IC50 (NCI-H2141): > 32000 nM
IC50 (BHT-101): 21400 nM
IC50 (RD): 7330 nM
IC50 (BC1 cell line): 3600 nM
IC50 (CHP-212): 2580 nM
IC50 (NCI-H1693): > 32000 nM
IC50 (Ca9-22): 6000 nM
IC50 (NCI-H2228): 17000 nM
IC50 (HGC-27): 4030 nM
IC50 (A204): 6090 nM
IC50 (NCI-H1651): 3940 nM
IC50 (HCC38): 7960 nM
IC50 (IM-9): 14100 nM
IC50 (Daudi): 1250 nM
IC50 (PF-382): 7730 nM
IC50 (SK-OV-3): 9130 nM
IC50 (SW48): 2480 nM
IC50 (786-0): 3920 nM
IC50 (TUR): 9580 nM
IC50 (ChaGo-K-1): 4120 nM
IC50 (YT): 1830 nM
